Laboratory results from ChEMBL document CHEMBL1201862, “PubChem BioAssay data set” (2004).
Calls of active or inactive are those of the source.

Experiments:
[1] = target: T1, Polyadenylate-binding protein 1 (Homo sapiens, UniProt P11940); assay: PABP1 MLLE–PAM2 interaction inhibitors, dose response, miRNA deadenylation inhibitor project, biochemical, fluorescence polarization, Cy5-PAM2 peptide, secondary (AID 602260); format: functional; conditions: read-out: IC50_Mean
[2] = target: T1, Polyadenylate-binding protein 1; assay: PABP1 MLLE–PAM2 binding inhibitor potency, dose response, biochemical, fluorescence polarization, FITC-PAM2 peptide (AID 602259); format: functional; conditions: read-out: IC50_Mean
[3] = target: T2, Leucine aminopeptidase (Plasmodium falciparum 3D7, UniProt Q8IL11); assay: P. falciparum M17LAP inhibitors, primary screen, biochemical, fluorogenic H-Leu-NHMec substrate, 1536-well (AID 1619); format: functional
T2 sequence (Q8IL11 whole entry): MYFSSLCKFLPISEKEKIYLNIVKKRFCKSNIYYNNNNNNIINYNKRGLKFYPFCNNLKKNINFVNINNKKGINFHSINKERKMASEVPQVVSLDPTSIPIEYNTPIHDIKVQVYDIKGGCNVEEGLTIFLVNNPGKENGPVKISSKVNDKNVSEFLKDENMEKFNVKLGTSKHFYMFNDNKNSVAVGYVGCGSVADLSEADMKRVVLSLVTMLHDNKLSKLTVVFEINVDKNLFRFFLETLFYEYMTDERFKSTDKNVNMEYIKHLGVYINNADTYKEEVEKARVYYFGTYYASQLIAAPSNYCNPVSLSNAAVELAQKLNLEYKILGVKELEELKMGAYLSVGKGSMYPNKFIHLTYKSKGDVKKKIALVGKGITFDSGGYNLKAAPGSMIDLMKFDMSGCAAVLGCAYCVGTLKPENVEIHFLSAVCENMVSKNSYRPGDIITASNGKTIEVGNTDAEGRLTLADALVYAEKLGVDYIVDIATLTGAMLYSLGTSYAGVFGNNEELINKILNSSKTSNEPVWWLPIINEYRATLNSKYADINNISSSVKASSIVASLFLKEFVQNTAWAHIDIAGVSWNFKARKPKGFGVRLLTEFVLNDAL

[4] = growth suppression of PTEN-null colon cells, dose response, cell-based, HCT116 PTEN knockout (AID 1047); format: functional;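 also: HCT116 colon tumor cells with PTEN knocked out; cells exposed to compound for 60 hours before readout; potency for loss of cell viability measured by luminescence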
[5] = growth suppression of beta-catenin-knockout colon cells, dose response, cell-based, HCT116, human colon tumor (AID 1045); format: functional;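 also: HCT116 colon tumor cells with beta catenin knocked out; cells exposed to compound for 60 hours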
[6] = target: T3, RNA-binding protein pos-1 (Caenorhabditis elegans, UniProt G5EF15); assay: inhibitors of POS-1/mex-3 RNA binding, dose response, biochemical, fluorescence polarization (AID 1964);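 also: purified POS-1 fused to maltose binding protein made in E. coli; potency of compounds blocking POS-1 binding to fluorescent RNA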
T3 sequence (G5EF15 whole entry): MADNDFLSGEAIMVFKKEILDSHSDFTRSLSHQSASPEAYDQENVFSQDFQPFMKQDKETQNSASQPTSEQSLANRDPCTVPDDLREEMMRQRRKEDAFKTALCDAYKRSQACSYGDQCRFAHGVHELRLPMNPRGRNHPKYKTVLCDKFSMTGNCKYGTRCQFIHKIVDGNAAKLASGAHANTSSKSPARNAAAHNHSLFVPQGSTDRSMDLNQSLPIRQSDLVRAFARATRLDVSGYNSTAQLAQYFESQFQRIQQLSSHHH

[7] = target: T4, Zinc finger protein mex-5 (Caenorhabditis elegans, UniProt Q9XUB2); assay: MEX-5/TCR-2 RNA interaction inhibitors, dose response, biochemical, C. elegans, fluorescence polarization (AID 1960)
T4 sequence (Q9XUB2 whole entry): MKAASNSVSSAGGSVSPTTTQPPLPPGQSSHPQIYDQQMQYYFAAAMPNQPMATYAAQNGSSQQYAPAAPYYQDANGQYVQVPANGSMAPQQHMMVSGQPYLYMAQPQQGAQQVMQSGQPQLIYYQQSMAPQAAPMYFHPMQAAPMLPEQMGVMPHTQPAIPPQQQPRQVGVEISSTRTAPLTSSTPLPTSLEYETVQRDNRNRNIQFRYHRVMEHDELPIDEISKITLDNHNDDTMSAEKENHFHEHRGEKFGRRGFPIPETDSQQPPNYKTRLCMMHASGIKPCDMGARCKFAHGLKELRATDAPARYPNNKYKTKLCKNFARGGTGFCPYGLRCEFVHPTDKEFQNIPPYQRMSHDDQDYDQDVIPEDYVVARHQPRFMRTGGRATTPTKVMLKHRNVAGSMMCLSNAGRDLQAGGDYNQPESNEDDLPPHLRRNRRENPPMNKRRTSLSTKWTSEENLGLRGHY

[8] = target: Cytochrome P450 3A4 (Homo sapiens, UniProt P08684);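 also: CYP3A4 tested as one member of a cytochrome P450 panel screen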
[9] = target: Luciferin 4-monooxygenase (Photinus pyralis, UniProt P08659); assay: firefly luciferase enzyme inhibitors, dose response, biochemical, luminescence (AID 1891)
[10] = Luminescence Cell-Based Dose Confirmation HTS to Identify Inhibitors of Platelet Dense Granule Release. [Related pubchem assays: 1663 (Primary HTS), 1678 (Summary of Project)]; format: functional
[11] = target: Cytochrome P450 2C19 (Homo sapiens, UniProt P33261); assay: Cytochrome panel assay with activity outcomes. Panel member name: p450-cyp2c19 Compounds with AC50 equal or less than 10 uM are considered active; format: functional
[12] = target: Cytochrome P450 2C9 (Homo sapiens, UniProt P11712)
[13] = Shn3 3'UTR reporter inhibitors, dose response, cell-based, Clone20 osteoblasts, firefly luciferase, cherry-picked (AID 624132); format: functional;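 also: firefly luciferase luminescence from reporter carrying the Shn3 3'UTR in osteoblasts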
[14] = control 3'UTR Renilla luciferase suppression, dose response, counter-screen for Shn3 inhibitor project, cell-based, Clone20-Shn3RL, cherry-picked (AID 624133); format: functional
[15] = HEp-2 cell cytotoxicity, dose response, cytotoxicity control for RSV inhibitor project, HTS (AID 2410); format: functional; conditions: human respiratory syncytial virus
[16] = inhibitors of firefly luciferase expression or activity, dose response, H4 neuroglioma cells, luminescence (AID 1990); format: functional, cell-based
[17] = test system: Streptococcus sp. 'group A'; assay: growth inhibition of control SK(-) GAS strain, dose response, counter-screen for streptokinase expression inhibitor project, luminescence, kanamycin, BacTiterGlo, confirmation (AID 1900); format: functional, organism-based
[18] = Luminescence Cell-Based Dose Response HTS to Identify Inhibitors of 5'UTR Stem-Loop Driven Prion Protein mRNA Translation in H4 Neuroglioblastoma Cells. [Related pubchem assays: 1827 (Project Summary), 1813 (Primary HTS)]; format: functional
[19] = inhibitors of SNCA 5'UTR-driven reporter translation, confirmation, H4 neuroglioma cells, luminescence (AID 1988); format: functional, cell-based
[20] = target: T5, Streptokinase A (Streptococcus pyogenes serotype M1, UniProt P10520); assay: S. pyogenes streptokinase expression inhibitors, potency, dose response, plasminogen activation absorbance, OD405 (AID 1914); format: functional, Streptococcus pyogenes M1 GAS;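 also: secreted streptokinase activity via plasminogen activation per viability signal from cell pellet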
T5 sequence (P10520 whole entry): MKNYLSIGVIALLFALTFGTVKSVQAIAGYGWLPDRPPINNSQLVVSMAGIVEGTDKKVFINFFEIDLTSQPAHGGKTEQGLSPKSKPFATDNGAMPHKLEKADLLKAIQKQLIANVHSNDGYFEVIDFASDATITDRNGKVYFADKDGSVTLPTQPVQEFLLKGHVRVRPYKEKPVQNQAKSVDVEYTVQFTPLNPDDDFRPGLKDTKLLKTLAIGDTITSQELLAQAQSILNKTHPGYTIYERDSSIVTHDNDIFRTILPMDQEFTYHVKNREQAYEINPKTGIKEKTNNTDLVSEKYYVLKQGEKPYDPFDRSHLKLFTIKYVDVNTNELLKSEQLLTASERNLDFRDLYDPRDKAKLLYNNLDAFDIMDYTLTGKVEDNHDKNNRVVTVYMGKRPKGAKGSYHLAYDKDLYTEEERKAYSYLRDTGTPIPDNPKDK

[21] = test system: Streptococcus; assay: Group A Streptococcus viability loss, dose response, counter-screen for streptokinase expression inhibitor project, luminescence, BacTiterGlo (AID 1915); format: functional, organism-based;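 also: potency for reduction of bacterial viability or growth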
[22] = Luminescence Cell-Based Dose Retest to Confirm Inhibitors of Cancer Stem Cells. [Related pubchem assays (depositor defined):AID2717, AID2721]; format: functional; conditions: Homo sapiens
[23] = target: T6, Cytochrome P450 1A2 (Homo sapiens, UniProt P05177);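 also: PubChem cytochrome P450 panel assay, CYP1A2 panel member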
T6 sequence (P05177 whole entry): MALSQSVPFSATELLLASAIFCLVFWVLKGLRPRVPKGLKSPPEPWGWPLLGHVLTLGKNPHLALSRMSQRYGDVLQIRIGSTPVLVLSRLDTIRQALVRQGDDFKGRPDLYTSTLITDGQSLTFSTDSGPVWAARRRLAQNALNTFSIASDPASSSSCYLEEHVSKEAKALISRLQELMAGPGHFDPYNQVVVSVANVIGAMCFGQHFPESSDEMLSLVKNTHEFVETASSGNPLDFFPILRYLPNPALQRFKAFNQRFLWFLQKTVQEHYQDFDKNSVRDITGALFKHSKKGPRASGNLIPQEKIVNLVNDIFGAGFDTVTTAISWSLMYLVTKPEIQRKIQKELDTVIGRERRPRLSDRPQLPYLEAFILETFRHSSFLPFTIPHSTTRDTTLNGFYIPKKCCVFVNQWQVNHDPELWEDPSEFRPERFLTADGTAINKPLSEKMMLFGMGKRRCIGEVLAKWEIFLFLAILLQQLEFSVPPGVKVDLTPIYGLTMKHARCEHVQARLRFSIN

[24] = inhibitors of intracellular T. cruzi replication, confirmation, NIH3T3 host cells, beta-gal luminescence (AID 2044); format: functional, cell-based;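 also: intracellular parasites grown in NIH/3T3 mouse fibroblasts as host cells; luminescent beta-galactosidase reporter signal from transgenic T. cruzi replicating inside host cells; inhibitors lower the luminescence signal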
[25] = cytotoxicity toward NIH3T3 fibroblasts, dose response, counter-screen, cell-based, ATP luminescence, mouse fibroblasts (AID 2010); format: functional;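 also: cells exposed to compound for about 90 hours before reading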
[26] = test system: INS1; assay: beta cell apoptosis inhibitors, cytokine rescue, dose response, luminescence, retest (AID 449756); format: functional, cell-based; conditions: Rattus norvegicus;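 also: cell death triggered by IL-1 beta plus TNF-alpha plus IFN-gamma mixture; protective hits raise ATP signal compared with cytokine alone wells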

Chain of Cytochrome P450 2C9 (P11712 whole entry): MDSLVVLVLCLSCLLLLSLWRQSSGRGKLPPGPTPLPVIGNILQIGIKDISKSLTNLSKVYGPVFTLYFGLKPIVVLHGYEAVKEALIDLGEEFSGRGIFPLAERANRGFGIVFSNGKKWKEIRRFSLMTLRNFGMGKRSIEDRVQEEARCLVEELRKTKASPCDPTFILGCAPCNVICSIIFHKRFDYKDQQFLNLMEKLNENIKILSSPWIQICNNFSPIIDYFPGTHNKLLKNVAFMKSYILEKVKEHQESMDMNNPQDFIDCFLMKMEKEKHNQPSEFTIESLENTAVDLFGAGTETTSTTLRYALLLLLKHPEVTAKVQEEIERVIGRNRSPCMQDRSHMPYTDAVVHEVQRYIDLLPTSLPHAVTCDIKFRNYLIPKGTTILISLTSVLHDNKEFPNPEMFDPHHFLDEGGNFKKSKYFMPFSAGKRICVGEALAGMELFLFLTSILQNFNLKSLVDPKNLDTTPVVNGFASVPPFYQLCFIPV
T1 sequence (P11940 whole entry): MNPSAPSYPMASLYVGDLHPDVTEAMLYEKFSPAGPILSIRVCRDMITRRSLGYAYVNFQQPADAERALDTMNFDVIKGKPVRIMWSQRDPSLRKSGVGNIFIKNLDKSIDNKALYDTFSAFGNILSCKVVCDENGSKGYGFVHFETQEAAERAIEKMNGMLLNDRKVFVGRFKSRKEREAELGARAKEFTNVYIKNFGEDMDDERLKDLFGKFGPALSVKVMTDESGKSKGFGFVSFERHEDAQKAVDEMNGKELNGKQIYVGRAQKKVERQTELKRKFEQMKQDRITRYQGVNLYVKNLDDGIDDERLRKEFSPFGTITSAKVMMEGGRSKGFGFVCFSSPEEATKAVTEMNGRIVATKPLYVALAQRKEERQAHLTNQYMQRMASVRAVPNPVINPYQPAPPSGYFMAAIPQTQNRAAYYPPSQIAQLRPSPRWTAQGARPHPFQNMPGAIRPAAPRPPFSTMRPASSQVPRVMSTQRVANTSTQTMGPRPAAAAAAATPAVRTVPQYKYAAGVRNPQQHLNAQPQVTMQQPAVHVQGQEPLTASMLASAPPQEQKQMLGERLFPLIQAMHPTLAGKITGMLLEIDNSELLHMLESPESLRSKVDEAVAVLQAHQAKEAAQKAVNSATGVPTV
Chain of Cytochrome P450 2C19 (P33261 whole entry): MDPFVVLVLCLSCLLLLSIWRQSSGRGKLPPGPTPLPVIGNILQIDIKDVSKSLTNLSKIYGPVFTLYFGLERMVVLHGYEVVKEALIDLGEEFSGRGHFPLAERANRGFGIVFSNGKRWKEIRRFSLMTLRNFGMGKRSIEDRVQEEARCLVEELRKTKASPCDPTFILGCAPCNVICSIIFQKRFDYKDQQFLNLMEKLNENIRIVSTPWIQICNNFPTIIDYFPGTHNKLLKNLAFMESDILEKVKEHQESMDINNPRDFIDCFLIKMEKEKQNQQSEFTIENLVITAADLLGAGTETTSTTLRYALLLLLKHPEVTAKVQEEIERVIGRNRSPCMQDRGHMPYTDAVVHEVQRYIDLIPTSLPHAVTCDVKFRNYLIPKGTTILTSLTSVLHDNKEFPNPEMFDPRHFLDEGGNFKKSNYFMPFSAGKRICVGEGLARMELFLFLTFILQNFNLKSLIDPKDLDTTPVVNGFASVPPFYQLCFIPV
Chain of Cytochrome P450 3A4 (P08684 whole entry): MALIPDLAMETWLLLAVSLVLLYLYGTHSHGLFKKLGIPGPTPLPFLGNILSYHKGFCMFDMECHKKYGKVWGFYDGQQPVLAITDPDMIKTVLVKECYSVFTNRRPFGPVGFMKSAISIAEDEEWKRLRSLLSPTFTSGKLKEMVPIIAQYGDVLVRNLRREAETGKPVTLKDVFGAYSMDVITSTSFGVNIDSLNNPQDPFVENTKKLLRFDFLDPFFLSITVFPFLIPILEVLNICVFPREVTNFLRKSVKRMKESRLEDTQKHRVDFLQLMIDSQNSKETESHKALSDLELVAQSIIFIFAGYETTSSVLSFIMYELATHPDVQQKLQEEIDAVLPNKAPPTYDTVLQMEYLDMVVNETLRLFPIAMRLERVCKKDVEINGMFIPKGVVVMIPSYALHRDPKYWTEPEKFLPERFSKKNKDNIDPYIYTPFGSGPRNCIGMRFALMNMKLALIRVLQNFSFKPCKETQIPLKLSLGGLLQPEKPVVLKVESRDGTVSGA
Chain of Luciferin 4-monooxygenase (P08659 whole entry): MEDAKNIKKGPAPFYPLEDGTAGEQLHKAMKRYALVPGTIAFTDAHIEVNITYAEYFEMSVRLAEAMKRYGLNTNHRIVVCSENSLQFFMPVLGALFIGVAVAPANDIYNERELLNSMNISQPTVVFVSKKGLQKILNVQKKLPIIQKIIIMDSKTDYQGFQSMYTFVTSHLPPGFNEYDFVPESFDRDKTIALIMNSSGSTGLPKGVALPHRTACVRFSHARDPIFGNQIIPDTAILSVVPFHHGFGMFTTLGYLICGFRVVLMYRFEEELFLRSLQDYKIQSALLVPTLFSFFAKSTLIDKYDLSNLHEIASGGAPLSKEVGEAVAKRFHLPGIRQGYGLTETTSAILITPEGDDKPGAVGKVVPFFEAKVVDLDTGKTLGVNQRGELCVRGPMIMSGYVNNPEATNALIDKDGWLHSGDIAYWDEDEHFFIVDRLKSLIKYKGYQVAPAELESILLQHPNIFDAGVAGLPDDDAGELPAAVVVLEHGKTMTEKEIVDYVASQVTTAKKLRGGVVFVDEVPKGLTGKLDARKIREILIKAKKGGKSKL

## O=C(NC(=S)Nc1ccc2c(c1)OCCO2)c1ccccc1
[1]
  IC50: > 66 µM (inactive)
[2]
  IC50: > 66 µM (inactive)

## O=C(CN1C(=O)C2C3C=CC(C4CC34)C2C1=O)Nc1cnc2ccccc2c1 (stereo unspecified)
[3]
  IC50: 21.7 µM (active)

## CC(C)CC(=O)/N=C1\SC2CS(=O)(=O)CC2N1Cc1ccccc1 (stereo unspecified)
[4]
  EC50: 41.1 µM (active)
[5]
  EC50: 75.3 µM (active)

## O=[N+]([O-])c1cccc(C(=S)N2CCN(c3ccccc3F)CC2)c1
[1]
  IC50: > 66 µM (inactive)
[2]
  IC50: > 66 µM (inactive)

## COc1cccc2c(=O)n(CC(=O)N3CCC(C)CC3)ccc12
[3]
  IC50: 42.5 µM (active)

## COc1ccc(/C(C)=C2\SC(=S)N(CCC(=O)O)C2=O)cc1
[3]
  IC50: 30.1 µM (active)

## COc1ccc(C(=O)/C=C/Nc2ccc([N+](=O)[O-])cc2C)cc1OC
[6]
  EC50: 54.6 µM (active)
[7]
  EC50: > 150 µM (not active)

## CN(C)c1ccnc(Oc2ccc(Cl)cc2)c1C#N
[6]
  EC50: > 300 µM (not active)
[7]
  EC50: > 300 µM (not active)
[8]
  AC50: 3.16 µM (inconclusive)

## COCCCNC(=O)Cn1nc(-c2ccccc2OC)ccc1=O
[9]
  EC50: > 112 µM (not active)
[10]
  EC50: > 112 µM (not active)
[11]
  AC50: inconclusive
[12]
  AC50: inconclusive

## CCCc1ccc(C(=O)NNc2cc(Cl)ccc2Cl)cc1
[13]
  AC50: 2.59 µM (active)
[14]
  AC50: 10.1 µM (active)

## CCCCc1ccc(NC(=O)N[C@H](C(=O)O)C(C)CC)cc1 (stereo partly specified)
[3]
  IC50: 6.31 µM (active)

## CSc1nc(C2CC2)cc(-c2cccs2)c1C#N
[15]
  CC50: 11.8 µM (active)
[11]; read-out: AC50
  AC50: 1.26 µM (inconclusive)
[12]
  AC50: inconclusive

## O=S(=O)(c1ccccc1)N1CCC(O)(CSc2ccc(Cl)cc2)CC1
[6]
  EC50: > 300 µM (not active)
[7]
  EC50: > 300 µM (not active)

## CCN(CC)c1ccc(C(=O)OCc2cc(=O)oc3cc(O)ccc23)cc1
[16]
  EC50: 9 µM (active)
[17]
  EC50: 16.1 µM (active)
[18]
  EC50: > 120 µM (not active)
[19]
  EC50: 10.5 µM (active)
[20]
  EC50: 128 µM (active)
[4]
  EC50: 7.3 µM (active)
[5]
  EC50: 5.62 µM (active)
[21]
  EC50: > 150 µM (not active)
[22]
  AC50: 4.72 µM (active)
[23]
  AC50: 2.24 µM (inconclusive)
[12]
  AC50: inconclusive

## O=C(NNc1ccccc1)C(=O)NNS(=O)(=O)c1ccc([N+](=O)[O-])cc1
[6]
  EC50: 21.1 µM (active)
[7]
  EC50: 5.08 µM (active)
[24]
  EC50: 0.87 µM (active)
[25]
  EC50: 9.05 µM (active)

## CC(C)(C)n1nc2c(c1NC(=O)c1cc3ccccc3o1)CSC2
[1]
  IC50: > 66 µM (inactive)
[2]
  IC50: > 66 µM (inactive)

## O=C(c1cccc(Cl)c1)c1nn(-c2ccccc2)c(=O)cc1C(F)(F)F
[4]
  EC50: 10.6 µM (active)
[5]
  EC50: 12.3 µM (active)
[26]
  AC50: 23.8 µM (active)

## CCOC(=O)c1c(-c2ccccc2)csc1NC(=O)/C(C#N)=C/c1ccc(OC)c(OC)c1
[6]
  EC50: > 300 µM (not active)
[7]
  EC50: > 300 µM (not active)

## CCNc1nn2ccccc2c1/C=C(\C#N)C(=O)OCC
[6]
  EC50: > 300 µM (not active)
[7]
  EC50: 68.8 µM (active)

## Cc1ccccc1C(=O)Nc1ccc2c(C#N)c3nc4ccccc4nc3n2c1
[4]
  EC50: 6.62 µM (active)
[5]
  EC50: 5.34 µM (active)

## O=Cc1c(-c2ccccc2)nc2ccccn12
[6]
  EC50: > 300 µM (not active)
[7]
  EC50: > 300 µM (not active)

## CCc1c(C)sc(NC(=O)c2ccco2)c1C(=O)N1CCOCC1
[1]
  IC50: > 66 µM (inactive)
[2]
  IC50: > 66 µM (inactive)

## CCOc1ccc(C2OC34CCCCC3C(C#N)(C#N)C2(C#N)C(=N)O4)cc1OC (stereo unspecified)
[6]
  EC50: 11.8 µM (active)
[7]
  EC50: 10.5 µM (active)

## Cc1cscc(C)c1=S
[1]
  IC50: > 66 µM (inactive)
[2]
  IC50: > 66 µM (inactive)

## COC(=O)c1ccc(NCC(=O)N2CCCCCC2)cc1
[3]
  IC50: 40.3 µM (active)
